Results from patent US20080103205A1, “Pesticidal compositions and methods of use” (priority 2006, published 2008).
Where two headings read alike, the source gives them in different places.

Tests used:
[1] = test system: Meloidogyne incognita; assay: Toxicity test, J2 juveniles of Meloidogyne incognita, 96 well micro plate; format: in vivo; details: Meloidogyne incognita
Method: (§1) Methodology: Toxicity tests were conducted using J2 juveniles of Meloidogyne incognita adult Caenorhabditis elegans collected from nematode-infested tomato plant roots and culture Petri plates, respectively. Test concentrations of 50, 100, 200, 300, or 400 ppm were prepared in 0.2% dimethylsulfoxide (DMSO) in tap water. Aliquots (300 microliters (ul)) were applied to a 96 well micro plate and a 20 ul aqueous solution containing nematodes was added. The number of nematodes in 20 ul ranged from 17 to 30. Micro plates were sealed with Parafilm™ and incubated at room temperature. Similar tests conducted with 0.2% DMSO in tap water served as controls. Nematode mortality was checked at 24, 48, 72, 120, and 168 hr after incubation. Nematodes that were motionless for 30 sec when observed under a stereomicroscope were considered paralyzed and included in mortality counts. Each concentration was replicated five times and mean percent mortality was calculated after correcting for control mortality using Abbott's formula.
(§2) Data Analysis: Mortality data were analyzed using PROC PROBIT (SAS) program and LC50 values were estimated.

[2] = test system: Caenorhabditis elegans; assay: Toxicity test, adult Caenorhabditis elegans, 96 well micro plate; format: in vivo; details: Caenorhabditis elegans
Method: as §1, §2

[3] = 24 h, read-out: Corrected Mortality (%)
[4] = 48 h, read-out: Corrected Mortality (%)
[5] = 72 h, read-out: Corrected Mortality (%)
[6] = 120 h, read-out: Corrected Mortality (%)
[7] = 168 h, read-out: Corrected Mortality (%)

Compound: O=C(O)c1cc([N+](=O)[O-])ccc1NCCCc1ccccc1 [NPPB, 5-Nitro-2-(3-phenylpropylamino)benzoic acid]
- mortality at 50 ppm ([1]; 24 h): 12%
- mortality at 100 ppm ([1]; 24 h): 14%
- mortality at 200 ppm ([1]; 24 h): 18%
- mortality at 300 ppm ([1]; 24 h): 20%
- mortality at 400 ppm ([1]; 24 h): 27%
- mortality at 50 ppm [1, 3]: 8%
- mortality at 100 ppm [1, 3]: 10%
- mortality at 200 ppm [1, 3]: 15%
- mortality at 300 ppm [1, 3]: 17%
- mortality at 400 ppm [1, 3]: 24%
- mortality at 50 ppm ([1]; 48 h): 22%
- mortality at 100 ppm ([1]; 48 h): 32%
- mortality at 200 ppm ([1]; 48 h): 41%
- mortality at 300 ppm ([1]; 48 h): 43%
- mortality at 400 ppm ([1]; 48 h): 56%
- mortality at 50 ppm [1, 4]: 17%
- mortality at 100 ppm [1, 4]: 28%
- mortality at 200 ppm [1, 4]: 37%
- mortality at 300 ppm [1, 4]: 39%
- mortality at 400 ppm [1, 4]: 53%
- mortality at 50 ppm ([1]; 72 h): 40%
- mortality at 100 ppm ([1]; 72 h): 51%
- mortality at 200 ppm ([1]; 72 h): 66%
- mortality at 300 ppm ([1]; 72 h): 73%
- mortality at 400 ppm ([1]; 72 h): 82%
- mortality at 50 ppm [1, 5]: 33%
- mortality at 100 ppm [1, 5]: 45%
- mortality at 200 ppm [1, 5]: 62%
- mortality at 300 ppm [1, 5]: 70%
- mortality at 400 ppm [1, 5]: 80%
- mortality at 50 ppm ([1]; 120 h): 62%
- mortality at 100 ppm ([1]; 120 h): 73%
- mortality at 200 ppm ([1]; 120 h): 90%
- mortality at 300 ppm ([1]; 120 h): 97%
- mortality at 400 ppm ([1]; 120 h): 100%
- mortality at 50 ppm [1, 6]: 56%
- mortality at 100 ppm [1, 6]: 69%
- mortality at 200 ppm [1, 6]: 89%
- mortality at 300 ppm [1, 6]: 97%
- mortality at 400 ppm [1, 6]: 100%
- mortality at 50 ppm ([1]; 168 h): 89%
- mortality at 100 ppm ([1]; 168 h): 93%
- mortality at 200 ppm ([1]; 168 h): 99%
- mortality at 300 ppm ([1]; 168 h): 100%
- mortality at 400 ppm ([1]; 168 h): 100%
- mortality at 50 ppm [1, 7]: 87%
- mortality at 100 ppm [1, 7]: 92%
- mortality at 200 ppm [1, 7]: 99%
- mortality at 300 ppm [1, 7]: 100%
- mortality at 400 ppm [1, 7]: 100%
- mortality at 50 ppm ([2]; 24 h): 14%
- mortality at 100 ppm ([2]; 24 h): 17%
- mortality at 200 ppm ([2]; 24 h): 20%
- mortality at 300 ppm ([2]; 24 h): 22%
- mortality at 400 ppm ([2]; 24 h): 24%
- mortality at 50 ppm [2, 3]: 10%
- mortality at 100 ppm [2, 3]: 14%
- mortality at 200 ppm [2, 3]: 18%
- mortality at 300 ppm [2, 3]: 20%
- mortality at 400 ppm [2, 3]: 22%
- mortality at 50 ppm ([2]; 48 h): 26%
- mortality at 100 ppm ([2]; 48 h): 36%
- mortality at 200 ppm ([2]; 48 h): 44%
- mortality at 300 ppm ([2]; 48 h): 49%
- mortality at 400 ppm ([2]; 48 h): 53%
- mortality at 50 ppm [2, 4]: 22%
- mortality at 100 ppm [2, 4]: 33%
- mortality at 200 ppm [2, 4]: 41%
- mortality at 300 ppm [2, 4]: 46%
- mortality at 400 ppm [2, 4]: 51%
- mortality at 50 ppm ([2]; 72 h): 47%
- mortality at 100 ppm ([2]; 72 h): 62%
- mortality at 200 ppm ([2]; 72 h): 73%
- mortality at 300 ppm ([2]; 72 h): 80%
- mortality at 400 ppm ([2]; 72 h): 84%
- mortality at 50 ppm [2, 5]: 43%
- mortality at 100 ppm [2, 5]: 59%
- mortality at 200 ppm [2, 5]: 71%
- mortality at 300 ppm [2, 5]: 78%
- mortality at 400 ppm [2, 5]: 83%
- mortality at 50 ppm ([2]; 120 h): 70%
- mortality at 100 ppm ([2]; 120 h): 85%
- mortality at 200 ppm ([2]; 120 h): 93%
- mortality at 300 ppm ([2]; 120 h): 97%
- mortality at 400 ppm ([2]; 120 h): 100%
- mortality at 50 ppm [2, 6]: 66%
- mortality at 100 ppm [2, 6]: 83%
- mortality at 200 ppm [2, 6]: 92%
- mortality at 300 ppm [2, 6]: 97%
- mortality at 400 ppm [2, 6]: 100%
- mortality at 50 ppm ([2]; 168 h): 93%
- mortality at 100 ppm ([2]; 168 h): 99%
- mortality at 200 ppm ([2]; 168 h): 100%
- mortality at 300 ppm ([2]; 168 h): 100%
- mortality at 400 ppm ([2]; 168 h): 100%
- mortality at 50 ppm [2, 7]: 92%
- mortality at 100 ppm [2, 7]: 99%
- mortality at 200 ppm [2, 7]: 100%
- mortality at 300 ppm [2, 7]: 100%
- mortality at 400 ppm [2, 7]: 100%

Compound: O=C(O)c1c2ccccc2cc2ccccc12 [9-AC, anthracene-9-carboxylic acid]
- mortality at 50 ppm ([1]; 24 h): 11%
- mortality at 100 ppm ([1]; 24 h): 12%
- mortality at 200 ppm ([1]; 24 h): 13%
- mortality at 300 ppm ([1]; 24 h): 16%
- mortality at 400 ppm ([1]; 24 h): 23%
- mortality at 50 ppm [1, 3]: 10%
- mortality at 100 ppm [1, 3]: 11%
- mortality at 200 ppm [1, 3]: 12%
- mortality at 300 ppm [1, 3]: 15%
- mortality at 400 ppm [1, 3]: 22%
- mortality at 50 ppm ([1]; 48 h): 21%
- mortality at 100 ppm ([1]; 48 h): 27%
- mortality at 200 ppm ([1]; 48 h): 28%
- mortality at 300 ppm ([1]; 48 h): 37%
- mortality at 400 ppm ([1]; 48 h): 49%
- mortality at 50 ppm [1, 4]: 17%
- mortality at 100 ppm [1, 4]: 23%
- mortality at 200 ppm [1, 4]: 24%
- mortality at 300 ppm [1, 4]: 34%
- mortality at 400 ppm [1, 4]: 46%
- mortality at 50 ppm ([1]; 72 h): 36%
- mortality at 100 ppm ([1]; 72 h): 43%
- mortality at 200 ppm ([1]; 72 h): 49%
- mortality at 300 ppm ([1]; 72 h): 60%
- mortality at 400 ppm ([1]; 72 h): 74%
- mortality at 50 ppm [1, 5]: 32%
- mortality at 100 ppm [1, 5]: 39%
- mortality at 200 ppm [1, 5]: 46%
- mortality at 300 ppm [1, 5]: 57%
- mortality at 400 ppm [1, 5]: 72%
- mortality at 50 ppm ([1]; 120 h): 58%
- mortality at 100 ppm ([1]; 120 h): 65%
- mortality at 200 ppm ([1]; 120 h): 67%
- mortality at 300 ppm ([1]; 120 h): 84%
- mortality at 400 ppm ([1]; 120 h): 97%
- mortality at 50 ppm [1, 6]: 54%
- mortality at 100 ppm [1, 6]: 62%
- mortality at 200 ppm [1, 6]: 64%
- mortality at 300 ppm [1, 6]: 83%
- mortality at 400 ppm [1, 6]: 97%
- mortality at 50 ppm ([1]; 168 h): 81%
- mortality at 100 ppm ([1]; 168 h): 86%
- mortality at 200 ppm ([1]; 168 h): 91%
- mortality at 300 ppm ([1]; 168 h): 100%
- mortality at 400 ppm ([1]; 168 h): 100%
- mortality at 50 ppm [1, 7]: 79%
- mortality at 100 ppm [1, 7]: 84%
- mortality at 200 ppm [1, 7]: 89%
- mortality at 300 ppm [1, 7]: 100%
- mortality at 400 ppm [1, 7]: 100%
- mortality at 50 ppm ([2]; 24 h): 12%
- mortality at 100 ppm ([2]; 24 h): 14%
- mortality at 200 ppm ([2]; 24 h): 16%
- mortality at 300 ppm ([2]; 24 h): 20%
- mortality at 400 ppm ([2]; 24 h): 27%
- mortality at 50 ppm [2, 3]: 10%
- mortality at 100 ppm [2, 3]: 12%
- mortality at 200 ppm [2, 3]: 14%
- mortality at 300 ppm [2, 3]: 18%
- mortality at 400 ppm [2, 3]: 26%
- mortality at 50 ppm ([2]; 48 h): 25%
- mortality at 100 ppm ([2]; 48 h): 30%
- mortality at 200 ppm ([2]; 48 h): 33%
- mortality at 300 ppm ([2]; 48 h): 39%
- mortality at 400 ppm ([2]; 48 h): 58%
- mortality at 50 ppm [2, 4]: 23%
- mortality at 100 ppm [2, 4]: 28%
- mortality at 200 ppm [2, 4]: 31%
- mortality at 300 ppm [2, 4]: 37%
- mortality at 400 ppm [2, 4]: 57%
- mortality at 50 ppm ([2]; 72 h): 44%
- mortality at 100 ppm ([2]; 72 h): 48%
- mortality at 200 ppm ([2]; 72 h): 58%
- mortality at 300 ppm ([2]; 72 h): 65%
- mortality at 400 ppm ([2]; 72 h): 83%
- mortality at 50 ppm [2, 5]: 41%
- mortality at 100 ppm [2, 5]: 45%
- mortality at 200 ppm [2, 5]: 56%
- mortality at 300 ppm [2, 5]: 63%
- mortality at 400 ppm [2, 5]: 81%
- mortality at 50 ppm ([2]; 120 h): 66%
- mortality at 100 ppm ([2]; 120 h): 73%
- mortality at 200 ppm ([2]; 120 h): 85%
- mortality at 300 ppm ([2]; 120 h): 90%
- mortality at 400 ppm ([2]; 120 h): 99%
- mortality at 50 ppm [2, 6]: 64%
- mortality at 100 ppm [2, 6]: 71%
- mortality at 200 ppm [2, 6]: 84%
- mortality at 300 ppm [2, 6]: 89%
- mortality at 400 ppm [2, 6]: 99%
- mortality at 50 ppm ([2]; 168 h): 89%
- mortality at 100 ppm ([2]; 168 h): 93%
- mortality at 200 ppm ([2]; 168 h): 98%
- mortality at 300 ppm ([2]; 168 h): 100%
- mortality at 400 ppm ([2]; 168 h): 100%
- mortality at 50 ppm [2, 7]: 89%
- mortality at 100 ppm [2, 7]: 92%
- mortality at 200 ppm [2, 7]: 98%
- mortality at 300 ppm [2, 7]: 100%
- mortality at 400 ppm [2, 7]: 100%
